Measured values as given in patent US7671085B2, “Non-steroidal farnesoid X receptor modulators and methods for the use thereof” (The Salk Institute for Biological Studies, priority 2002, dated 2010).
“Also recorded” adds a separate entry of the source.

Legend:
[1] = target: T1, FXR (Homo sapiens, UniProt Q96RI1); assay: cell-based FXR transcription assay, FXR responsive promoter linked to luciferase reporter; details: for RE^a: cell-based FXR reporter assay, footnote a not given; for FXR activation, in words: cell-based reporter assay, SAR discussion
T1 construct: using a full length FXR on a natural response element; expressed in transfected cells
T1 sequence (Q96RI1 1-486): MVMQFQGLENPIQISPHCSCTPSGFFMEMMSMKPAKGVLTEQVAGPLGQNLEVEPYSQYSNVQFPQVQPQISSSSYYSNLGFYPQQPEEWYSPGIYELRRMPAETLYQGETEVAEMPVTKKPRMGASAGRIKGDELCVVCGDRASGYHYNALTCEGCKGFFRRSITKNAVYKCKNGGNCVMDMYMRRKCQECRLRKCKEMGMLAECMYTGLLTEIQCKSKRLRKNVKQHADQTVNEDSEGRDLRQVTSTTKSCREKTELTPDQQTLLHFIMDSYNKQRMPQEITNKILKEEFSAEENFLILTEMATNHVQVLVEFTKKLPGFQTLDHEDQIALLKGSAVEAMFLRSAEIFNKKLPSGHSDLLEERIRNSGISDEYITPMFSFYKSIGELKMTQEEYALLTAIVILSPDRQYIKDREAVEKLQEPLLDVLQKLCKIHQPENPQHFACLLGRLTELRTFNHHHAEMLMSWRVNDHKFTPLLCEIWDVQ
Summary of the method: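 Cells co-transfected with full-length FXR and a luciferase reporter driven by a natural response element on a minimal promoter. Compound exposure ≈10 μM for 18 h before washing and luciferase read-out, in 384-well format, with CDCA as reference activator. EC50 derived from transcriptional activity.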

[2] = system: IBABP mRNA in HT29-FXRFL cells; assay: Northern blot of IBABP mRNA in HT29 stable cell lines; assay type: cell-based, Human; details: for concentration for maximal induction of IBABP mRNA: overnight treatment
Experimental: HepG2 or HT29-derived cell lines were typically cultured in medium containing superstripped FBS for 24 hr before the addition of a ligand or DMSO (vehicle) for an additional 24-48 hr. Total RNA was isolated using TRIzol reagent and was resolved (10 μg/lane) on a 1% agarose, 2.2 M formaldehyde gel, transferred to a nylon membrane (Hybond N^+; Amersham Biosciences, Inc.), and cross-linked to the membrane with UV light.
cDNA probes were radiolabeled with [α-^32P]dCTP using the highprime labeling kit (Amersham Biosciences, Inc.). Membranes were hybridized using the QuikHyb hybridization solution (Stratagene, La Jolla, Calif.) according to the manufacturer's protocol. Blots were normalized for variations of RNA loading by hybridization to a control probe, either, 18 S ribosomal cDNA, or the ribosomal protein 36B4. The RNA levels were quantitated using a PhosphorImager (ImageQuant software; Molecular Dynamics, Inc., Sunnyvale, Calif.) in addition to being exposed to X-ray film.
Human colon cells HT29 (FXR null until differentiated) were infected with retroviral vectors that expressed either FXR constructs and the puromycin-resistant gene or the puromycin-resistant gene alone. Puromycin resistant cells were isolated and pooled cell populations were propagated that harbored either the vector alone (HT29-BABE), overexpressed FXR full length (HT29-FXRFL), a non-functional FXR truncated at the AF2 region (HT29-FXR-AF2), or a constitutively active FXR that has the VP16 activation domain fused N-terminal of the protein (HT29-VP16-FXR). Confirmation of the successful establishment of the different stable cell lines was established via northern blot analysis of FXR message levels in the cells.
These observations verify the usefulness of this colon cell model system for studying the induction of FXR target genes.
The ability of the novel compounds identified herein to induce IBABP gene expression in this cell system was also examined. Total RNA from HT29 stable cells treated overnight with fexaramine, fexarine and fexarene was probed for IBABP gene expression.

[3] = HT29-BABE or HT29-FXR-AF2 cell lines

Row | RE^a [1] | FXR activation, in words [1] | SMILES | induction of IBABP mRNA, in words [2, 3] | induction of IBABP mRNA, in words ([2]; HT29-FXRFL cells) | concentration for maximal induction of IBABP mRNA ([2]; HT29-FXRFL cells) [µM]
1 | 1.72 | excellent activity | COC(=O)/C=C/c1cccc(N(Cc2ccc(-c3ccc(N(C)C)cc3)cc2)C(=O)C2CCCCC2)c1 [Compound 259] | No induction | induced expression of the IBABP mRNA | 1
2 | 1.90 | excellent activity | COC(=O)/C=C/c1cccc(N(Cc2ccc(-c3ccc4c(c3)OCO4)cc2)C(=O)C2CCCCC2)c1 [Compound 244] | No induction | induced expression of the IBABP mRNA | 1

Row | SMILES | RE^a [1] | FXR activation, in words [1] | induction of IBABP mRNA, in words [2, 3] | induction of IBABP mRNA, in words ([2]; HT29-FXRFL cells) | concentration for maximal induction of IBABP mRNA ([2]; HT29-FXRFL cells) [µM]
3 | COC(=O)C=Cc1cccc(N(Cc2ccc(C=Cc3ccccc3)cc2)C(=O)C2CCCCC2)c1 [Compound 121] | 1.55 | excellent activity; also recorded: among the most active | No induction | induced expression of the IBABP mRNA | 1
